This is an account of results in PMC6009866, “Inhibition behaviours of some phenolic acids on rat kidney aldose reductase enzyme: an in vitro study” (Journal of Enzyme Inhibition and Medicinal Chemistry, 2017).

SMILES strings stand for the structures. Entries after “also recorded” stand apart in the source; their conditions may differ.

In experiment [1] the target is T1, rat kidney aldose reductase (Rattus norvegicus, UniProt P07943).
T1 construct: Purified rat kidney aldose reductase enzyme; from tissue; host or cells: rat kidney
The experiment is described as follows: In vitro inhibition of purified rat kidney aldose reductase (NADPH absorbance decrease at 340 nm). The experiment is classed as biochemical. The following applies: for Inhibition type: from Lineweaver-Burk graph, substrate DL-glyceraldehyde; for IC50: purified rat kidney AR, 10 mM DL-glyceraldehyde, 0.5 mM NADPH, pH 6.2, from Activity%-[Inhibitor] graphs; for Inhibition effect (in words): rat kidney AR, compared to the other phenolic acids of the study. On the procedure:
Aldose reductase activity was assayed by following the absorbance decrease of NADPH at 340 nm spectrophotometrically.
The dialyzed enzyme solution was loaded onto the DE-52 Cellulose anion exchange column previously equilibrated with 10 mM Na-phosphate buffer (pH 7.4). […] Eluted fractions were collected, and the enzyme activity was checked at 340 nm. The fractions with the enzyme activity were pooled and mixed with glycerol. Then this enzyme solution was loaded onto the Sephadex G-100 column equilibrated with 10 mM Na-phosphate buffer (pH 7.4). Fractions were analyzed for both protein amount (280 nm) and enzyme activity (340 nm). […] The enzyme activity was checked at 340 nm in collected fractions, and the tubes with enzyme activity were combined. All purification procedures were performed at 4 °C. SDS polyacrylamide gel electrophoresis was done to the control of enzyme purity.
In inhibition studies, aldose reductase activity was assayed by following the change in absorbance at 340 nm, spectrophotometrically. One millilitre of the reaction mix contained 0.2 M Na-phosphate buffer (pH = 6.2), 10 mM DL-glyceraldehyde, 0.5 mM NADPH and enzyme solution[45]. AR activity was measured in the presence of different concentrations of phenolic acids. A control sample without inhibitor was taken as 100%, and for each inhibitor, an Activity%-[Inhibitor] graphs were drawn. IC50 values were determined from Activity%-[Inhibitor] graphs. For determination of the Ki constant, three different phenolic acid concentrations were used, and DL-glyceraldehyde was also used as a substrate at five different concentrations. […] Analysis of data obtained was made by t-test and they are given as X ± SD.

In experiment [2] the test system is human placental aldose reductase. Further details: method as in PMID 2505942. The following applies: cited from earlier work.
Setting [3] is: Lineweaver-Burk graph, three inhibitor concentrations, five DL-glyceraldehyde concentrations, X ± SD.
Setting [4] is: mixed-type inhibition, second constant, Lineweaver-Burk graph, X ± SD.

Compound `O=C(O)c1cccc(O)c1` [3-Hydroxybenzoic acid, 3-hydroxybenzoic acid] yielded a Ki in experiment [1] (setting [3]) of 176 ± 24.5 µM. In experiment [1], the Inhibition type result is given as “Noncompetitive” and the midpoint of inhibition, the IC50, lay at 150 µM.
The like results for `O=C(O)c1ccc(O)cc1` [4-Hydroxybenzoic acid] were, in that order, 52.2 ± 20.8 µM, “Noncompetitive” and 50 µM.
Compound `O=C(/C=C/c1ccc(O)c(O)c1)O[C@@H]1C[C@](O)(C(=O)O)C[C@@H](O)[C@H]1O` [Chlorogenic acid] had an inhibitory constant (Ki) in experiment [1] (setting [3]) of 1.56 ± 0.436 µM. In experiment [1], the Inhibition type result was “mixed type”, the IC50 came to 5.47 µM and the “Inhibition effect (in words)” value was “strong inhibition effect”. In experiment [1] (setting [4]), the Ki was 28.05 µM and the “Ki'” value was found to be 28.05 ± 10.210 µM.
For `COc1cc(C=CC(=O)O)ccc1O` [Ferullic acid, 4-Hydroxy-3-methoxycinnamic acid], the Ki in experiment [1] (setting [3]) was 72.5 ± 29.9 µM. In experiment [1], the Inhibition type result was “Noncompetitive” and the IC50 turned out to be 69 µM.
In experiment [1] (setting [3]), `O=C(O)c1cc(O)c(O)c(O)c1` [Gallic acid] registered an inhibition constant Ki of 219 ± 56.3 µM. In experiment [1], the Inhibition type result is given as “Noncompetitive”, inhibition was half-maximal at 176 µM (IC50) and the “Inhibition effect (in words)” value is “weak inhibition effect”.
The compound `O=C(O)c1ccc(O)c(O)c1` [Protocatechuic acid, 3,4-dihydroxybenzoic acid] came in with an inhibition constant Ki in experiment [1] (setting [3]) of 46.3 ± 31.5 µM. Also, in experiment [1], the Inhibition type result is on record as “Noncompetitive” and the midpoint of inhibition, the IC50, lay at 48 µM.
For `COc1cc(C=CC(=O)O)cc(OC)c1O` [Sinapic acid, 3,5-Dimethoxy-4-hydroxycinnamic acid] the same measures were 43.4 µM, “Noncompetitive” and 33 µM.
The like results for `COc1cc(C(=O)O)cc(OC)c1O` [Syringic acid] were, in that order, 107 ± 21.6 µM, “Noncompetitive” and 95 µM.
Consider `O=C(OCC1OC(OC(=O)c2cc(O)c(O)c(OC(=O)c3cc(O)c(O)c(O)c3)c2)C(OC(=O)c2cc(O)c(O)c(OC(=O)c3cc(O)c(O)c(O)c3)c2)C(OC(=O)c2cc(O)c(O)c(OC(=O)c3cc(O)c(O)c(O)c3)c2)C1OC(=O)c1cc(O)c(O)c(OC(=O)c2cc(O)c(O)c(O)c2)c1)c1cc(O)c(O)c(OC(=O)c2cc(O)c(O)c(O)c2)c1` (stereo not shown) [Tannic acid], for which, in experiment [2], the “Inhibition effect (in words)” value is listed as “potent inhibitor” and the Inhibition type entry is “mixed type”. This compound gave a Ki in experiment [1] (setting [3]) of 0.598 ± 0.148 µM. Besides, in experiment [1], the Inhibition type entry is “Noncompetitive”, the half-maximal inhibitory concentration (IC50) turned out to be 0.5 µM and the “Inhibition effect (in words)” value is “strong inhibition effect; also recorded: potent inhibition effect”.
With `COc1cc(C(=O)O)ccc1O` [Vanillic acid, 4-hydroxy-3-methoxybenzoic acid], in experiment [1] (setting [3]), the Ki was determined as 103 ± 56.3 µM. Besides, in experiment [1], the Inhibition type result is on record as “Noncompetitive” and the 50% inhibitory concentration (IC50) amounted to 86 µM.
Compound `O=C(O)/C=C/c1ccc(O)cc1` [p-Coumaric acid, trans-4-Hydroxycinnamic acid] gave a Ki in experiment [1] (setting [3]) of 53.1 ± 2 µM. In experiment [1], the Inhibition type entry is given as “Uncompetitive” and the 50% inhibitory concentration (IC50) is 57 µM.
Regarding `O=C(O)c1cc(O)cc(O)c1` [α-Resorcylic acid, 3,5-dihydroxybenzoic acid], in experiment [1] (setting [3]), the inhibition constant Ki is 127 ± 22 µM. In experiment [1], the Inhibition type result is reported as “Noncompetitive” and the IC50 amounted to 110 µM.
